From patent US20190117653A1, “SYSTEMS AND METHODS FOR TREATING BACTERIAL INFECTION” (priority 2016, published 2019)
In brackets after ≈: the same amount, converted by molar mass. Like-named read-outs stand apart in the source and are kept apart here.

Experiments:
[1] = 13-week toxicology study in the marmoset, AUC at NOAEL; type: in vivo; details: marmoset females
S. aureus = details: worldwide surveillance studies; cited from earlier work
[2] = PK of IV iclaprim in moderate hepatic impairment; type: in vivo, human; details: moderate hepatic impairment (Child-Pugh grade B)
Procedure: For example, the PK profile of 0.8 mg/kg iclaprim administered by IV was investigated in 8 subjects with mild to moderate obesity (body mass index or “BMI” 30-40) and in 8 subjects with severe obesity (BMI>40). […] Linear regression analysis indicated a strong linear relationship between AUC (and Cmax) and BMI. Thus it was clear that the body composition of the subject affected the pharmacokinetics of IV administered iclaprim, with a greater percentage of body fat causing an increase in AUC and Cmax. […] Thus there is a risk of overdosing subjects with moderate hepatic impairment, which can be mitigated by reducing the IV iclaprim dose by about 50%.

[3] = test system: common Gram-positive and Gram-negative respiratory bacteria; experiment: pulmonary surfactant interaction, overall effect of BPS on MIC and MICRZ; type: cell-based; details: 2.5% (v/v) BPS; all tested strains or isolates
Procedure: Antibacterial susceptibility testing was measured by JMI Labs (North Liberty, Iowa, USA). […] These clinical isolates were collected from US (n=4), Mexico (n=2), and Italy (n=1). Susceptibility testing was performed by broth microdilution in accordance with the Clinical and Laboratory and Standards Institute (CLSI) guidelines M07-A10 (2015) and the standard operating procedures at JMI laboratories. Minimum inhibitory concentrations (MICS) were based on CLSI criteria (2015). There are no published breakpoints for iclaprim. E. coli, K. pneumoniae, M. catarrhalis, E. faecalis, and S. aureus were tested in cation-adjusted Mueller-Hinton broth (CA-MHB). […]
Because bovine pulmonary surfactant can introduce cloudiness to the MIC testing media, antimicrobial growth inhibition was also evaluated using the colorimetric metabolic indicator resazurin (Camlab Ltd., Cambridge, UK). […] Growth inhibition was then evaluated as a visible color change from blue (no growth) to pink (robust growth) and recorded as a MIC1z value.
(§1) The MICs of iclaprim, levofloxacin, and daptomycin were determined against Gram-positive and Gram-negative isolates.
A new vial of bovine pulmonary surfactant (BPS; Survanta®; Abbott Laboratories, Columbus, Ohio) was utilized for each independent experiment. […] MICs of daptomycin were determined in CAMHB with the Ca^2+ content adjusted to 50 mg/L.

[4] = test system: nosocomial pneumonia suspected or confirmed to be caused by Gram-positive pathogens; experiment: Phase 2 study in nosocomial pneumonia, iclaprim versus vancomycin; type: in vivo, human
From the text: This MIC effect of surfactant on daptomycin activity has been reported to be mediated by binding of surfactant components to specific structures present on antibiotics, such as the lipophilic side-chain of daptomycin (Silverman et al., 2005). […] Collectively, the current in vitro study and a previous Phase 2 study support that iclaprim could be a potential treatment for pneumonia, including nosocomial pneumonia caused by susceptible and multidrug resistant Gram-positive bacteria.

E. faecalis ATCC 33186 = experiment: MIC with/without bovine pulmonary surfactant; type: cell-based; details: Enterococcus faecalis
Procedure: (§2) Antibacterial susceptibility testing was measured by JMI Labs (North Liberty, Iowa, USA). […] These clinical isolates were collected from US (n=4), Mexico (n=2), and Italy (n=1). Susceptibility testing was performed by broth microdilution in accordance with the Clinical and Laboratory and Standards Institute (CLSI) guidelines M07-A10 (2015) and the standard operating procedures at JMI laboratories. Minimum inhibitory concentrations (MICS) were based on CLSI criteria (2015). There are no published breakpoints for iclaprim. E. coli, K. pneumoniae, M. catarrhalis, E. faecalis, and S. aureus were tested in cation-adjusted Mueller-Hinton broth (CA-MHB). S. pneumoniae were tested in CA-MHB supplemented with 2.5-5% lysed horse blood, and H. influenza were tested in Haemophilus test medium. Quality control and interpretation of results were performed in accordance with CLSI M100-S26 (2016) methods. QC ranges for iclaprim were those approved by CLSI and published in M100-S26 (2016). Iclaprim and comparator antibiotic MIC results were within the CLSI published ranges against E. coli ATCC 25922, E. faecalis ATCC 29212, E. faecalis ATCC 33186, H. influenzae ATCC 49247, K. pneumoniae ATCC 700603 (ESBL phenotype), S. aureus ATCC 29213, and S. pneumoniae ATCC 49619. Isolates were tested with MIC panels (ThermoFisher Scientific, Cleveland, Ohio, USA) of comparator antibiotics (daptomycin and levofloxacin).
(§3) Because bovine pulmonary surfactant can introduce cloudiness to the MIC testing media, antimicrobial growth inhibition was also evaluated using the colorimetric metabolic indicator resazurin (Camlab Ltd., Cambridge, UK). […] S. pneumoniae panels were omitted from resazurin analysis because the color change was obscured by the lysed horse blood present in the test medium. Growth inhibition was then evaluated as a visible color change from blue (no growth) to pink (robust growth) and recorded as a MIC1z value.
as §1
(§4) A new vial of bovine pulmonary surfactant (BPS; Survanta®; Abbott Laboratories, Columbus, Ohio) was utilized for each independent experiment. Each vial was mixed thoroughly and a 100 μL aliquot was spread on an agar plate, which was incubated overnight to confirm sterility. […] The concentration of surfactant was expressed in terms of percent volume of Survanta® suspension, which consisted of phospholipid (25 mg/mL) and surfactant proteins (<1 mg/mL) in 0.9% sodium chloride solution (Goerke, 1998). MICs of daptomycin were determined in CAMHB with the Ca^2+ content adjusted to 50 mg/L.

[5] = test system: S. aureus Clinical Isolate 825189; experiment: MIC with/without bovine pulmonary surfactant; type: cell-based; details: Staphylococcus aureus
Procedure: as §2, §3, §1, §4

E. faecalis ATCC 29212 = experiment: MIC with/without bovine pulmonary surfactant; type: cell-based; details: Enterococcus faecalis
Procedure: as §2, §3, §1, §4

[6] = test system: M. catarrhalis Clinical Isolate 893806; experiment: MIC with/without bovine pulmonary surfactant; type: cell-based; details: Moraxella catarrhalis, 2.5% v/v BPS, read-out: MIC, Resazurin: +BPS
Procedure: as §2, §3, §1, §4

L-type calcium channel = L-type calcium channel (Homo sapiens, UniProt Q13936); experiment: L-type calcium channel inhibition; type: cell-based
Sequence of L-type calcium channel (Q13936 whole entry): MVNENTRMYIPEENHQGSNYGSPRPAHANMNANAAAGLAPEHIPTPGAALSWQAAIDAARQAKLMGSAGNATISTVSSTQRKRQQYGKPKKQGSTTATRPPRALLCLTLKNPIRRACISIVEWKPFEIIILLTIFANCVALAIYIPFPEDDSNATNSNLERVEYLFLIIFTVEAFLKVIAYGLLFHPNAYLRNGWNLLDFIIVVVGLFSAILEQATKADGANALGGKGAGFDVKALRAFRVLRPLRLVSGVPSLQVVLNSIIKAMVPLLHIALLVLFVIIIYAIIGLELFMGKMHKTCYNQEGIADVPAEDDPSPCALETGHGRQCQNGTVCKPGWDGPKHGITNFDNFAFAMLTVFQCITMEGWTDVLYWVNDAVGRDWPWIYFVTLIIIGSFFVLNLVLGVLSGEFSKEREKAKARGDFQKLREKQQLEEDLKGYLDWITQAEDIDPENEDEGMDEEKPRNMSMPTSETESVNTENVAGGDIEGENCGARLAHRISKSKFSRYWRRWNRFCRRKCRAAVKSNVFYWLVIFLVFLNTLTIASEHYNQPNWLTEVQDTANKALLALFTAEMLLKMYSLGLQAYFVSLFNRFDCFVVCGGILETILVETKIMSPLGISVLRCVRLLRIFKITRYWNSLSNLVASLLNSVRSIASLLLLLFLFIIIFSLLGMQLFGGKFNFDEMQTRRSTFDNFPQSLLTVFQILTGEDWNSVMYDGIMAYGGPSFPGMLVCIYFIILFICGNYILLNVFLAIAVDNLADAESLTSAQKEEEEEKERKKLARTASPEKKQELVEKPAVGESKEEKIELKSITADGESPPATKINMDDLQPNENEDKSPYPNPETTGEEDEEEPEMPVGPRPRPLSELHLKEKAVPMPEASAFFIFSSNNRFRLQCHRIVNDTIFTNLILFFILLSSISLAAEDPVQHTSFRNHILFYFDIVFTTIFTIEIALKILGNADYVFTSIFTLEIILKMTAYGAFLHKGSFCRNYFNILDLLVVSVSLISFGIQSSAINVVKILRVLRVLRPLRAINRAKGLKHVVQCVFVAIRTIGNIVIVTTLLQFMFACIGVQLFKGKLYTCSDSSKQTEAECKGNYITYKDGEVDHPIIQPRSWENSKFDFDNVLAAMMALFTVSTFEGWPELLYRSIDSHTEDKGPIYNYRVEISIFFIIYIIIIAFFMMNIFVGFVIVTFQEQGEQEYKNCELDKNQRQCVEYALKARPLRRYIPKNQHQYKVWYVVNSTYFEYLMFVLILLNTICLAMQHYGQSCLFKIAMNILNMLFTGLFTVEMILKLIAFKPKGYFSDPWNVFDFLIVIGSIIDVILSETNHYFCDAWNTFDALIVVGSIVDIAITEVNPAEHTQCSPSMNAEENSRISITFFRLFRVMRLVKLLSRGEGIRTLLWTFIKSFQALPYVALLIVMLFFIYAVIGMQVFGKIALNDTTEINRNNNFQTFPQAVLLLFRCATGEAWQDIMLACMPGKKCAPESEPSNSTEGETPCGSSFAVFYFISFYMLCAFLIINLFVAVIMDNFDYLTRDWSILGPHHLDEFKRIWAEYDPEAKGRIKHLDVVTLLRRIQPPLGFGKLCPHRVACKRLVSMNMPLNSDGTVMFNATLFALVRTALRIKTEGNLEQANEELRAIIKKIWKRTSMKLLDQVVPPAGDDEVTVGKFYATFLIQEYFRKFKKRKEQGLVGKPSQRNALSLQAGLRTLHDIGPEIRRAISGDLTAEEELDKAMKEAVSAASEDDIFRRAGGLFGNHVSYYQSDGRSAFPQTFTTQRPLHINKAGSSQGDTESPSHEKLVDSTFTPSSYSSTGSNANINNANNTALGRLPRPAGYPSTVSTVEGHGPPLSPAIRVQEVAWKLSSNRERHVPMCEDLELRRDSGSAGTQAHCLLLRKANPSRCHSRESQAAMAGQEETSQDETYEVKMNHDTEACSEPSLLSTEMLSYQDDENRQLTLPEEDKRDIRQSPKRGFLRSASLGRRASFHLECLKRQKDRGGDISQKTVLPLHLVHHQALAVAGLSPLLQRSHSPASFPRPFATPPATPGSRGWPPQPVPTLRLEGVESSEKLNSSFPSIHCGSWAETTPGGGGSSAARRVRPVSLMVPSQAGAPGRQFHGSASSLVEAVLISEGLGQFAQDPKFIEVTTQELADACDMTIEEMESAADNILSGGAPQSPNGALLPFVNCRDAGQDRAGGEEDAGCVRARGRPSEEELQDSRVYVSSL

S. aureus strain AH1252 = experiment: neutropenic rat lung infection model; type: in vivo, Staphylococcus aureus
Procedure: S. aureus strain AH1252, a thymidine knockout of the MRSA wild type AW6 strain, was utilized for this study. The bacterial strain was diluted in a 2% alginate buffer, which was added dropwise in a ratio of 1:5 into […] to form alginate beads. The alginate beads reduce the efficacy of bacterial clearance similar to that seen in the cystic fibrosis population. A 5.25×10^4 bacterial inoculum was administered to groups of 9 rats, intratracheally, with prepared alginate bacteria suspensions, under isoflurane anesthesia. […] Twelve hours after the last treatment, rats were euthanized and lungs collected for CFU determination.

QTc interval = details: human, in vivo
Procedure: A second single-dose ECG study was conducted on healthy human volunteers using weight-based doses of 0.4 mg/kg and 0.8 mg/kg iclaprim base infused over 30 minutes and 1.6 mg/kg infused over 60 minutes.

[7] = exposure to iclaprim in Phase I studies; details: human, in vivo

For `COc1cc(Cc2cnc(N)nc2N)c2c(c1OC)OC(C1CC1)C=C2` (racemic) [Iclaprim], the “AUC achieved at the NOAEL” value [1] is listed as 26,600 hr×ng/mL, the MIC90 (S. aureus) is listed as 0.12 µg/mL (≈ 0.339 µM) and the “increase in AUC” value [2] is listed as 2.5 fold. For the same compound, the “increase in Cmax” value [2] was 1.4 fold, the “effect of BPS on MIC and MICRZ values” [3] was “minimal or no effect” and the “cure rate, intent-to-treat population” value ([4]; iclaprim 0.8 mg/kg IV q12h, test of cure visit (17 of 23)) was 73.9%. For the same compound, the “cure rate, intent-to-treat population” value ([4]; iclaprim 1.6 mg/kg IV q8h, test of cure visit (15 of 24)) was 62.5%, the “death rate within 28 days of the start of treatment” value ([4]; iclaprim q8h (3 of 24)) was 12.5% and the “death rate within 28 days of the start of treatment” value ([4]; iclaprim q12h (2 of 23)) was 8.7%. The MIC (E. faecalis ATCC 33186; ATCC33186, 2.5% v/v BPS, read-out: MIC, Resazurin: +BPS) was ≤ 0.015 µg/mL, the MIC (E. faecalis ATCC 33186; ATCC33186, no BPS, read-out: MIC, Resazurin) was 0.03 µg/mL (≈ 0.0846 µM) and the MIC ([5]; 2.5% v/v BPS, read-out: MIC, CLSI: +BPS) was 0.12 µg/mL (≈ 0.339 µM). The MIC ([5]; 2.5% v/v BPS, read-out: MIC, Resazurin: +BPS) was 0.12 µg/mL (≈ 0.339 µM), the MIC ([5]; no BPS, read-out: MIC, CLSI) was 0.06 µg/mL (≈ 0.169 µM) and the MIC ([5]; no BPS, read-out: MIC, Resazurin) was 0.06 µg/mL (≈ 0.169 µM). The MIC (E. faecalis ATCC 29212; ATCC29212, 2.5% v/v BPS, read-out: MIC, Resazurin: +BPS) was ≤ 0.015 µg/mL, the MIC (E. faecalis ATCC 29212; ATCC29212, no BPS, read-out: MIC, Resazurin) was ≤ 0.015 µg/mL and the MIC [6] was 8 µg/mL (≈ 22.6 µM). The IC50 (L-type calcium channel) was 46 µM, the “72 hour lungs log10CFU/Lung (CFU/gram of lung)” value (S. aureus strain AH1252; 80 mg/kg SC/BID) was 3.34 and the “Change in CFUs from 2 hr. infection controls” value (S. aureus strain AH1252; 80 mg/kg SC/BID) was 0.22 log 10 CFU. For the same compound, the “Change in CFUs from 72 hr. infection controls” value (S. aureus strain AH1252; 80 mg/kg SC/BID) was −5.34 log 10 CFU, the “Survival >60 hrs” value (S. aureus strain AH1252; 80 mg/kg SC/BID (160 mg/kg/day) 3 days) was 9/9 and the “CFU reduction from the 72 hour infection controls” value (S. aureus strain AH1252; iclaprim 80 mg/kg SC/BID) was 5.34 log 10 CFU. For the same compound, the “post-infusion QTcF prolongation from baseline (no subject above)” value (QTc interval) was ≤ 60 ms, the AUC ([7]; 1 mg/kg) was 2,575 ± 757 hr × ng/mL and the AUC ([7]; 4 mg/kg) was 8,894 [29.0] hr × ng/mL. For the same compound, the Cmax ([7]; 4 mg/kg) was 2,851 [19.2] ng/mL.
